Reference: ChEMBL document CHEMBL1157519, “Cytotoxic acylated triterpene saponins from the husks of Xanthoceras sorbifolia” (J Nat Prod, 2008)

Test system: OVCAR-3
Assay: Growth inhibition of human OVCAR-3 cells by MTT assay
Assay type: functional, cell-based

IC50	Structure (SMILES)
4.8 µM	C/C=C(/C)C(=O)O[C@H]1[C@H](OC(=O)/C(C)=C\C)[C@]2(CO)[C@H](O)C[C@]3(C)C(=CC[C@@H]4[C@@]5(C)CC[C@H](O[C@@H]6O[C@H](C(=O)O)[C@@H](O)[C@H](O[C@@H]7O[C@@H](CO)[C@H](O)[C@H]7O)[C@H]6O[C@@H]6O[C@H](CO)[C@H](O)[C@H](O)[C@H]6O)[C@@H](C)[C@@H]5CC[C@]43C)[C@@H]2CC1(C)C
4.2 µM	C/C=C(/C)C(=O)O[C@H]1[C@H](OC(=O)C(C)C)[C@]2(CO)[C@H](O)[C@H](O)[C@]3(C)C(=CC[C@@H]4[C@@]5(C)CC[C@H](O[C@@H]6O[C@H](C(=O)O)[C@@H](O)[C@H](O[C@@H]7O[C@@H](CO)[C@H](O)[C@H]7O)[C@H]6O[C@@H]6O[C@H](CO)[C@H](O)[C@H](O)[C@H]6O)[C@@H](C)[C@@H]5CC[C@]43C)[C@@H]2CC1(C)C
13.1 µM	C/C=C(/C)C(=O)O[C@H]1[C@H](O)[C@]2(COC(=O)C(C)CC)[C@H](O)[C@H](O)[C@]3(C)C(=CC[C@@H]4[C@@]5(C)CC[C@H](O[C@@H]6O[C@H](C(=O)O)[C@@H](O)[C@H](O[C@@H]7O[C@@H](CO)[C@H](O)[C@H]7O)[C@H]6O[C@@H]6O[C@H](CO)[C@@H](O)[C@H](O)[C@H]6O)[C@@H](C)[C@@H]5CC[C@]43C)[C@@H]2CC1(C)C (some centres undefined)
4 µM	C/C=C(/C)C(=O)O[C@H]1[C@H](OC(=O)/C(C)=C\C)[C@]2(CO)[C@H](O)[C@H](O)[C@]3(C)C(=CC[C@@H]4[C@@]5(C)CC[C@H](O[C@@H]6O[C@H](C(=O)O)[C@@H](O)[C@H](O[C@@H]7O[C@@H](CO)[C@H](O)[C@H]7O)[C@H]6O[C@@H]6O[C@H](CO)[C@H](O)[C@H](O)[C@H]6O)[C@@H](C)[C@@H]5CC[C@]43C)[C@@H]2CC1(C)C
